# Experiments:
# Assay type in all cases: in vivo
# [1] = system: Alopecurus myosuroides; test: Pre-emergence herbicidal test, ALOMY; design: key to herbicidal effect (0-9 scale) ALOMY / herbicidal rating ALOMY: A rating 0 indicates growth as untreated control; a rating 9 indicates death; details: PRE, 21 days after spraying
# Protocol: (§1) To evaluate their herbicidal activity, compounds according to the invention are tested using a representative range of plants:
# (§2) The pre-emergence tests involve spraying a liquid formulation of the compound onto the soil in which the seeds of the plant species mentioned above has recently been sown.
# (§3) The soil used in the tests is a prepared horticultural loam. The formulations used in the tests are prepared from solutions of the test compounds in acetone containing 0.4% by weight of an alkylphenol/ethylene oxide condensate available under the trade mark TRITON X-155. […] In these tests untreated sown soil are used as controls.
# (§4) The herbicidal effects of the test compounds are assessed visually twenty-one days after spraying the foliage and the soil and are recorded on a 0-9 scale. A rating 0 indicates growth as untreated control, a rating 9 indicates death. An increase of 1 unit on the linear scale approximates to a 10% increase in the level of effect.
# [2] = system: Hordeum vulgare; test: Post-emergence herbicidal test, HORVW; details: 21 days after spraying
# Protocol: as §1
# These acetone solutions are diluted with water and the resulting formulations applied at dosage levels equivalent to about 1000, 800, 400, 250 or 100 g/ha per hectare of test compound per pot. After spraying, the plants are placed on greenhouse benches and are cared for in the usual manner, commensurate with conventional greenhouse practices.
# as §4
# [3] = system: Glycine max; test: Pre-emergence herbicidal test, GLXMA; details: PRE, 21 days after spraying
# Protocol: as §1, §2, §3, §4
# [4] = system: Abutilon theophrasti; test: Pre-emergence herbicidal test, ABUTH; design: key to herbicidal effect (0-9 scale) ABUTH / herbicidal rating ABUTH: A rating 0 indicates growth as untreated control; a rating 9 indicates death; details: PRE, 21 days after spraying
# Protocol: as §1, §2, §3, §4
# [5] = system: Hordeum vulgare; test: Pre-emergence herbicidal test, HORVW; design: key: A rating 0 indicates growth as untreated control; a rating 9 indicates death; details: 21 days after spraying
# Protocol: as §1, §2, §3, §4
# [6] = system: Alopecurus myosuroides; test: Post-emergence herbicidal test, ALOMY; design: key: A rating 0 indicates growth as untreated control; a rating 9 indicates death; details: 21 days after spraying
# Protocol: as §1
# (§5) […] After spraying, the plants are placed on greenhouse benches and are cared for in the usual manner, commensurate with conventional greenhouse practices.
# as §4
# [7] = system: Setaria viridis; test: Post-emergence herbicidal test, SETVI; design: key to herbicidal effect (0-9 scale) SETVI / herbicidal rating SETVI: A rating 0 indicates growth as untreated control; a rating 9 indicates death; details: POST, 21 days after spraying
# Protocol: as §1, §5, §4
# [8] = system: Abutilon theophrasti; test: Post-emergence herbicidal test, ABUTH; design: key to herbicidal effect (0-9 scale) ABUTH / herbicidal rating ABUTH: A rating 0 indicates growth as untreated control; a rating 9 indicates death; details: POST, 21 days after spraying
# Protocol: as §1, §5, §4
# [9] = system: Ipomoea hederacea; test: Post-emergence herbicidal test, IPOHE; design: key to herbicidal effect (0-9 scale) IPOHE / herbicidal rating IPOHE: A rating 0 indicates growth as untreated control; a rating 9 indicates death; details: POST, 21 days after spraying
# Protocol: as §1, §5, §4
# [10] = system: Matricaria inodora; test: Pre-emergence herbicidal test, MATIN; design: key to herbicidal effect (0-9 scale) MATIN / herbicidal rating MATIN: A rating 0 indicates growth as untreated control; a rating 9 indicates death; details: PRE, 21 days after spraying
# Protocol: as §1, §2, §3, §4
# [11] = system: Setaria viridis; test: Pre-emergence herbicidal test, SETVI; design: key to herbicidal effect (0-9 scale) SETVI / herbicidal rating SETVI: A rating 0 indicates growth as untreated control; a rating 9 indicates death; details: PRE, 21 days after spraying
# Protocol: as §1, §2, §3, §4
# [12] = system: Triticum aestivum; test: Post-emergence herbicidal test, TRZAW; details: POST, 21 days after spraying
# Protocol: as §1, §5, §4
# [13] = system: Ipomoea hederacea; test: Pre-emergence herbicidal test, IPOHE; design: key: A rating 0 indicates growth as untreated control; a rating 9 indicates death; details: 21 days after spraying
# Protocol: as §1, §2, §3, §4
# [14] = system: Zea mays; test: Pre-emergence herbicidal test, ZEAMX; design: key to herbicidal effect (0-9 scale) ZEAMX / herbicidal rating ZEAMX: A rating 0 indicates growth as untreated control; a rating 9 indicates death; details: PRE, 21 days after spraying
# Protocol: as §1, §2, §3, §4
# [15] = system: Matricaria inodora; test: Post-emergence herbicidal test, MATIN; design: key to herbicidal effect (0-9 scale) MATIN / herbicidal rating MATIN: A rating 0 indicates growth as untreated control; a rating 9 indicates death; details: POST, 21 days after spraying
# Protocol: as §1, §5, §4
# [16] = system: Echinochloa crus-galli; test: Post-emergence herbicidal test, ECHCG; design: key: A rating 0 indicates growth as untreated control; a rating 9 indicates death; details: 21 days after spraying
# Protocol: as §1, §5, §4
# [17] = system: Triticum aestivum; test: Pre-emergence herbicidal test, TRZAW; design: key: A rating 0 indicates growth as untreated control; a rating 9 indicates death; details: 21 days after spraying
# Protocol: as §1, §2, §3, §4
# [18] = system: Zea mays; test: Post-emergence herbicidal test, ZEAMX; design: key: A rating 0 indicates growth as untreated control; a rating 9 indicates death; details: 21 days after spraying
# Protocol: as §1, §5, §4
# [19] = system: Glycine max; test: Post-emergence herbicidal test, GLXMA; design: key: A rating 0 indicates growth as untreated control; a rating 9 indicates death; details: 21 days after spraying
# Protocol: as §1, §5, §4
# [20] = system: Echinochloa crus-galli; test: Pre-emergence herbicidal test, ECHCG; design: key: A rating 0 indicates growth as untreated control; a rating 9 indicates death; details: 21 days after spraying
# Protocol: as §1, §2, §3, §4
# [21] = system: Galium aparine; test: Pre-emergence herbicidal test, GALAP; design: key to herbicidal effect (0-9 scale) GALAP / herbicidal rating GALAP: A rating 0 indicates growth as untreated control; a rating 9 indicates death; details: PRE, 21 days after spraying
# Protocol: as §1, §2, §3, §4
# [22] = system: Galium aparine; test: Post-emergence herbicidal test, GALAP; design: key to herbicidal effect (0-9 scale) GALAP / herbicidal rating GALAP: A rating 0 indicates growth as untreated control; a rating 9 indicates death; details: POST, 21 days after spraying
# Protocol: as §1, §5, §4
# [23] = system: Stellaria media; test: Pre-emergence herbicidal test, STEME; design: key to herbicidal effect (0-9 scale) STEME / herbicidal rating STEME: A rating 0 indicates growth as untreated control; a rating 9 indicates death; details: PRE, 21 days after spraying
# Protocol: as §1, §2, §3, §4
# [24] = system: Stellaria media; test: Post-emergence herbicidal test, STEME; design: key to herbicidal effect (0-9 scale) STEME / herbicidal rating STEME: A rating 0 indicates growth as untreated control; a rating 9 indicates death; details: POST, 21 days after spraying
# Protocol: as §1, §5, §4
compound,measurement,setting,value
"COc1ccc2ccn(-n3c(=O)cc(C(F)(F)F)n(C)c3=O)c2c1 [Example 1, 6-Methoxy-1-(3-methyl-4-trifluoromethylpyrimidin-2,6-dion-1-yl)-indole]",herbicidal effect (0-9 scale) ALOMY,[1]; 250 g/ha,9
same,herbicidal effect (0-9 scale) ALOMY,[1]; 1000 g/ha,9
same,herbicidal effect (0-9 scale) HORVW,[2]; 250 g/ha,8
same,herbicidal effect (0-9 scale) HORVW,[2]; 1000 g/ha,8
same,herbicidal effect (0-9 scale) GLXMA,[3]; 250 g/ha,6
same,herbicidal effect (0-9 scale) GLXMA,[3]; 1000 g/ha,6
same,herbicidal effect (0-9 scale) ABUTH,[4]; 250 g/ha,9
same,herbicidal effect (0-9 scale) ABUTH,[4]; 1000 g/ha,9
same,herbicidal effect (0-9 scale) HORVW,[5]; 250 g/ha,7
same,herbicidal effect (0-9 scale) HORVW,[5]; 1000 g/ha,9
same,herbicidal effect (0-9 scale) ALOMY,[6]; 250 g/ha,9
same,herbicidal effect (0-9 scale) ALOMY,[6]; 1000 g/ha,9
same,herbicidal effect (0-9 scale) SETVI,[7]; 250 g/ha,9
same,herbicidal effect (0-9 scale) SETVI,[7]; 1000 g/ha,9
same,herbicidal effect (0-9 scale) ABUTH,[8]; 250 g/ha,9
same,herbicidal effect (0-9 scale) ABUTH,[8]; 1000 g/ha,9
same,herbicidal effect (0-9 scale) IPOHE,[9]; 250 g/ha,9
same,herbicidal effect (0-9 scale) IPOHE,[9]; 1000 g/ha,9
same,herbicidal effect (0-9 scale) MATIN,[10]; 250 g/ha,9
same,herbicidal effect (0-9 scale) MATIN,[10]; 1000 g/ha,9
same,herbicidal effect (0-9 scale) SETVI,[11]; 250 g/ha,9
same,herbicidal effect (0-9 scale) SETVI,[11]; 1000 g/ha,9
same,herbicidal effect (0-9 scale) TRZAW,[12]; 250 g/ha,6
same,herbicidal effect (0-9 scale) TRZAW,[12]; 1000 g/ha,8
same,herbicidal effect (0-9 scale) IPOHE,[13]; 250 g/ha,8
same,herbicidal effect (0-9 scale) IPOHE,[13]; 1000 g/ha,9
same,herbicidal effect (0-9 scale) ZEAMX,[14]; 250 g/ha,8
same,herbicidal effect (0-9 scale) ZEAMX,[14]; 1000 g/ha,9
same,herbicidal effect (0-9 scale) MATIN,[15]; 250 g/ha,8
same,herbicidal effect (0-9 scale) MATIN,[15]; 1000 g/ha,9
same,herbicidal effect (0-9 scale) ECHCG,[16]; 250 g/ha,9
same,herbicidal effect (0-9 scale) ECHCG,[16]; 1000 g/ha,9
same,herbicidal effect (0-9 scale) TRZAW,[17]; 250 g/ha,8
same,herbicidal effect (0-9 scale) TRZAW,[17]; 1000 g/ha,9
same,herbicidal effect (0-9 scale) ZEAMX,[18]; 250 g/ha,9
same,herbicidal effect (0-9 scale) ZEAMX,[18]; 1000 g/ha,9
same,herbicidal effect (0-9 scale) GLXMA,[19]; 250 g/ha,9
same,herbicidal effect (0-9 scale) GLXMA,[19]; 1000 g/ha,9
same,herbicidal effect (0-9 scale) ECHCG,[20]; 250 g/ha,9
same,herbicidal effect (0-9 scale) ECHCG,[20]; 1000 g/ha,9
same,herbicidal effect (0-9 scale) GALAP,[21]; 250 g/ha,9
same,herbicidal effect (0-9 scale) GALAP,[21]; 1000 g/ha,9
same,herbicidal effect (0-9 scale) GALAP,[22]; 250 g/ha,9
same,herbicidal effect (0-9 scale) GALAP,[22]; 1000 g/ha,9
same,herbicidal effect (0-9 scale) STEME,[23]; 250 g/ha,9
same,herbicidal effect (0-9 scale) STEME,[23]; 1000 g/ha,9
same,herbicidal effect (0-9 scale) STEME,[24]; 250 g/ha,9
same,herbicidal effect (0-9 scale) STEME,[24]; 1000 g/ha,9

# Source: patent US6376426B1, “Herbicidal 3-(heterocycl-1-yl)-uracils” (BASF Aktiengesellschaft, priority 1999, dated 2002)
